What is called MIC is the lowest concentration that inhibits growth of the organism. The IC50 is the concentration at which inhibition is half-maximal.

Experiment [1] has as its system Klebsiella pneumonia MTCC 618. Nature of the experiment: in vitro antibacterial activity, dilution MIC (CLSI M07-A10). In kind it is cell-based. The note with it: Klebsiella pneumoniae, MTCC618.
The subject of experiment [2] is Staphylococcus epidermidis. The description is as above. In kind it is cell-based.
Experiment [3] concerns Staphylococcus aureus ATCC BAA-1556 (MERSA resistant). The description is as above. To be noted: ATCCBAA1556. In kind it is cell-based.
The subject of experiment [4] is Bacillus subtilis MTCC 441. Described as above. In kind it is cell-based. The note with it: MTCC441.
In experiment [5] the test system is Staphylococcus aureus ATCC 29213. The experiment is described as above. It is filed as cell-based. The note with it: ATCC29213.
For experiment [6], the system named is Pseudomonas aeruginosa MTCC 741. The description is as above. To be noted: MTCC741. It is filed as cell-based.
The test system of experiment [7] is Enterococcus faecium ATCC 35667. The experiment is described as above. It is filed as cell-based. The note with it: ATCC35667.
Experiment [8] deals with Escherichia coli MTCC 443. The description is as above. It is filed as cell-based. To be noted: MTCC443.
Experiment [9] relates to Enterococcus faecium ATCC 51559 (VRE resistant). The description is as above. In kind it is cell-based.
In experiment [10] the test system is H37Rv type of M. tuberculosis strains. Nature of the experiment: antitubercular alamar blue microplate MIC assay. It is filed as cell-based. The note with it: mycobacterium tuberculosis H37Rv strain, read-out: anti-mycobacterial activity (MIC).
In another experiment the target is T1, DNA gyrase from E. coli (Escherichia coli, UniProt P0AES4+P0AES6).
T1 construct: purchased Inspiralis
Description: Inhibitory activities on E. coli DNA Gyrase (Inspiralis assay). It is filed as biochemical. Here is the method:
First, the plates were rehydrated with buffer (20 mM Tris-HCl with pH 7.6, 0.01% w/v BSA, 0.05% v/v Tween 20, 137 mM NaCl) and the biotinylated oligonucleotide was then immobilized. After washing off the unbound oligonucleotide, the enzyme test was performed. […] Reaction solutions were incubated at 37° C. for 30 min. After that, the TF buffer (50 mM NaOAc with pH 5.0, 50 mM NaCl and 50 mM MgCl2) was added to terminate the enzymatic reaction. After additional incubation for 30 min at rt, during which biotinoligonucleotide-plasmid triplex was formed, the unbound plasmid was washed off using TF buffer and SybrGOLD in T10 buffer (10 mM Tris HCl with pH 8.0 and 1 mM EDTA) was added. The fluorescence was measured with a microplate reader (BioTek Synergy H4, excitation: 485 nm, emission: 535 nm). Initial screening was done at 100 or 10 μM concentration of inhibitors. […] GraphPad Prism software was used to calculate the IC50 values. The result is given as the average value of three independent measurements.

Values after ≈ are worked out from the molar mass of the structure shown. Read-outs that look alike come from different tables or passages of the source.

T1 sequence (P0AES4 whole entry, one chain of several): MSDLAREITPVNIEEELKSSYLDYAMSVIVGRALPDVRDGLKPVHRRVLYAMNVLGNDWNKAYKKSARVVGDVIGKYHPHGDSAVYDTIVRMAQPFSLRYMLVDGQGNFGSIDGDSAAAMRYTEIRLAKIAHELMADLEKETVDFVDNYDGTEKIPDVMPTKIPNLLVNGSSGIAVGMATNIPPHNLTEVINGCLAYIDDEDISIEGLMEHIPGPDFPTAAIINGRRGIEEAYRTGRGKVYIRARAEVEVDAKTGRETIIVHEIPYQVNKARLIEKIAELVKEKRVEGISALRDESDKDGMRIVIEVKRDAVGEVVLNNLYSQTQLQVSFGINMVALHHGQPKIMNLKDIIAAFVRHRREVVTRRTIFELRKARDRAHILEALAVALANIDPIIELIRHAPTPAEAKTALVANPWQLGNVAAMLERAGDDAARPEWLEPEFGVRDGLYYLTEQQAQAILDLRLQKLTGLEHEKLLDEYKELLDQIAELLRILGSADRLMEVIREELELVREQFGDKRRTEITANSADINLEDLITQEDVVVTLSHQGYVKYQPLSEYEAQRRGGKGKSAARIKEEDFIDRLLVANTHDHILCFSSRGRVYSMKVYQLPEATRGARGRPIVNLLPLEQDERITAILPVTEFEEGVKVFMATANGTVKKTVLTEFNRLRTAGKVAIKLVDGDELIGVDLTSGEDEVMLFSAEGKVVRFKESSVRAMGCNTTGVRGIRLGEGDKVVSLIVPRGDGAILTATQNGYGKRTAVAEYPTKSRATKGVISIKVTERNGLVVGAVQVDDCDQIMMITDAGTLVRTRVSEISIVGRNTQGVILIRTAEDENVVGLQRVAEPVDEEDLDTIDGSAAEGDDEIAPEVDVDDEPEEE

Compound `CN[C@H](CC(C)C)C(=O)N[C@H]1C(=O)N[C@@H](CC(N)=O)C(=O)N[C@H]2C(=O)N[C@H]3C(=O)N[C@H](C(=O)N[C@H](C(=O)O)c4cc(O)cc(O)c4-c4cc3ccc4O)[C@H](O)c3ccc(c(Cl)c3)Oc3cc2cc(c3O[C@@H]2O[C@H](CO)[C@@H](O)[C@H](O)[C@H]2O[C@H]2C[C@](C)(N)[C@H](O)[C@H](C)O2)Oc2ccc(cc2Cl)[C@H]1O` [Vancomycin, reference compound] showed a minimum inhibitory concentration (MIC) in experiment [1] of more than 128 mg/L.
As to `CCCCCN(C)Cc1ccc(C(=O)O)cc1-c1cnc2[nH]c3c(NC)cc(F)cc3c(=O)c2c1` [Compound 8, 3-(7-fluoro-9-(methylamino)-5-oxo-5,10-dihydrobenzo[b][1,8]naphthyridin-3-yl)-4-((methyl(pentyl)amino)methyl)benzoic acid], the minimal inhibitory concentration (MIC) in experiment [2] was 1 mg/L (≈ 2.1 µM); in [3], 0.75 mg/L (≈ 1.57 µM); in experiment [4], 0.5 mg/L (≈ 1.05 µM); in experiment [5] it was 0.75 mg/L (≈ 1.57 µM); in experiment [6] it was 0.5 mg/L (≈ 1.05 µM); in experiment [7], 0.1 mg/L (≈ 0.21 µM). For the same compound, the MIC is 2 mg/L (≈ 4.2 µM) in [8]; 0.75 mg/L (≈ 1.57 µM) in [1] (Klebsiella pneumonia MTCC 618, read-out: MIC); 0.1 mg/L (≈ 0.21 µM) in [9]; 4 mg/L (≈ 8.39 µM) in experiment [10]. Further, on DNA gyrase from E. coli, the IC50 amounted to 0.011 µM.

The record behind these values is patent US11866412B1, “Acridin-9-one compounds as antibacterial agents” (KING FAISAL UNIVERSITY, priority 2023, dated 2024).
